The results in this text go back to ChEMBL document CHEMBL3044972, “Synthesis, anti-inflammatory, and cytotoxicity evaluation of 9,10-dihydroanthracene-9,10-,-succinimide and bis-succinimide derivatives” (2013).

Structures are written as SMILES.

Type in all cases: functional
One experiment has as its system HepG2. The experiment is described as follows: Cytotoxicity against Homo sapiens (human) HepG2 cells assessed as growth inhibition at 10 uM after 48 hr by SRB assay. The following applies: HepG2, 48 h, read-out: GI. On the technique in general: In SRB staining, fixed cells bind dye roughly in proportion to their protein.
For a further experiment, the system named is HCT-15. The experiment is described as follows: Cytotoxicity against Homo sapiens (human) HCT15 cells assessed as growth inhibition at 10 uM after 48 hr by SRB assay. The following applies: HCT-15, 48 h, read-out: GI.
The subject of another experiment is PA-1. The experiment is described as follows: Cytotoxicity against Homo sapiens (human) PA1 cells assessed as growth inhibition at 10 uM after 48 hr by SRB assay. Particulars: PA-1, 48 h, read-out: GI.
For another experiment, the system named is NCI-H522. The experiment can be described thus: Cytotoxicity against Homo sapiens (human) NCI-H522 cells assessed as growth inhibition at 10 uM after 48 hr by SRB assay. Particulars: NCI-H522, 48 h, read-out: GI.
The test system of a further experiment is T47D. The experiment is described as follows: Cytotoxicity against Homo sapiens (human) T47D cells assessed as growth inhibition at 10 uM after 48 hr by SRB assay. Particulars: read-out: GI.
A further experiment has as its system Rattus norvegicus. The experiment is described as follows: Anti-inflammatory activity against albino Charles Foster Rattus norvegicus (rat) assessed as inhibition of carrageenan-induced paw edema at 50 mg/kg, po administered 30 min prior to carrageenan injection measured after 1-3 hr by plethysmometer. Set-up: scale not given: the % may be the effect or the level left. In general terms: Carrageenan injected into the paw causes an acute inflammation.

Regarding `O=C1C2C3c4ccccc4C(c4ccccc43)C2C(=O)N1CCCCN1C(=O)C2C3c4ccccc4C(c4ccccc43)C2C1=O` (configuration not stated), the inhibition of growth at 10 µM in the experiment with HepG2 came to 25%; in the experiment on HCT-15, 26%; with PA-1, 37%; with NCI-H522, 23%; with T47D, 19%. Moreover, the Activity in the experiment on Rattus norvegicus was 25%.
As for `O=c1[nH]cc(F)c(=O)[nH]1` [FLUOROURACIL], the inhibition of growth at 10 µM in the experiment with HepG2 was 28%; in the experiment on HCT-15 it was 15%; with PA-1 it was 18%; in the experiment with NCI-H522, 18%; in the experiment with T47D it was 10%.
`CC(C)Cc1ccc(C(C)C(=O)O)cc1` (configuration not stated) [IBUPROFEN]: the Activity with Rattus norvegicus was found to be 39%.
Consider `O=C1C2C3c4ccccc4C(c4ccccc43)C2C(=O)N1Cc1ccccc1` (configuration not stated), for which the inhibition of growth at 10 µM worked out at 52% in the experiment with HepG2; 12% with HCT-15; 43% with PA-1; 62% in the experiment on NCI-H522; 22% with T47D. Moreover, in the experiment with Rattus norvegicus, the Activity was 37%.
On to `O=C1C2C3c4ccccc4C(c4ccccc43)C2C(=O)N1CCN1CCCCC1` (configuration not stated), for which the inhibition of growth at 10 µM in the experiment with HepG2 stood at 38%; with HCT-15, 6%; in the experiment with PA-1 it was 25%; in the experiment on NCI-H522, 23%; with T47D, 20%. In addition, the Activity in the experiment on Rattus norvegicus was found to be 27%.
On to `O=C1C2C3c4ccccc4C(c4ccccc43)C2C(=O)N1CCCN1C(=O)C2C3c4ccccc4C(c4ccccc43)C2C1=O` (configuration not stated), for which the inhibition of growth at 10 µM in the experiment on HepG2 came out at 45%; in the experiment with HCT-15, 27%; in the experiment on PA-1, 6%; in the experiment on NCI-H522, 17%; in the experiment on T47D, 24%. The Activity in the experiment on Rattus norvegicus is on record as 33%.
In the case of `O=C1C2C3c4ccccc4C(c4ccccc43)C2C(=O)N1CN1CCOCC1` (configuration not stated), the inhibition of growth at 10 µM with HepG2 turned out to be 34%; with HCT-15 it was 22%; in the experiment on PA-1, 24%; with NCI-H522, 24%; in the experiment with T47D, 20%. In addition, the Activity in the experiment on Rattus norvegicus amounted to 39%.
In the case of `CC(CN1C(=O)C2C3c4ccccc4C(c4ccccc43)C2C1=O)N1C(=O)C2C3c4ccccc4C(c4ccccc43)C2C1=O` (configuration not stated), the inhibition of growth at 10 µM with HepG2 amounted to 41%; in the experiment on HCT-15, 9%; with PA-1 it was 14%; with NCI-H522, 20%; in the experiment with T47D it was 2%. The Activity in the experiment on Rattus norvegicus worked out at 22%.
Turning to `C[C@@H]1C[C@@H]([C@H](O)CC2CC(=O)NC(=O)C2)C(=O)[C@@H](C)C1` [CYCLOHEXIMIDE], the inhibition of growth at 10 µM with HepG2 amounted to 15%; in the experiment on HCT-15, 12%; in the experiment on PA-1, 32%; in the experiment on NCI-H522 it was 13%; in the experiment with T47D it was 9%.
Turning to `O=C1C2C3c4ccccc4C(c4ccccc43)C2C(=O)N1CCCn1ccnc1` (configuration not stated), the inhibition of growth at 10 µM came to 48% in the experiment on HepG2; 30% with HCT-15; 40% in the experiment with PA-1; 32% in the experiment on NCI-H522; 28% in the experiment on T47D. In addition, the Activity with Rattus norvegicus was found to be 27%.
On to `O=C1C2C3c4ccccc4C(c4ccccc43)C2C(=O)N1CCN1CCCC1` (configuration not stated), for which the inhibition of growth at 10 µM was 47% with HepG2; 14% with HCT-15; 36% with PA-1; 13% in the experiment with NCI-H522; 7% with T47D. For the same compound, the Activity in the experiment with Rattus norvegicus is recorded as 28%.
Consider `O=C1C2C3c4ccccc4C(c4ccccc43)C2C(=O)N1Cc1ccco1` (configuration not stated), for which the inhibition of growth at 10 µM turned out to be 38% in the experiment with HepG2; 15% with HCT-15; 27% with PA-1; 25% in the experiment on NCI-H522; 40% in the experiment with T47D. Also, the Activity in the experiment on Rattus norvegicus was 15%.
`O=P1(N(CCCl)CCCl)NCCCO1` (configuration not stated) [CYCLOPHOSPHAMIDE ANHYDROUS]: the inhibition of growth at 10 µM in the experiment with HepG2 turned out to be 14%; with HCT-15 it was 5%; in the experiment on PA-1, 15%; with NCI-H522 it was 9%; with T47D, 12%.
As to `O=C1C2C3c4ccccc4C(c4ccccc43)C2C(=O)N1Cc1ccccn1` (configuration not stated), the inhibition of growth at 10 µM with HepG2 stood at 35%; in the experiment with HCT-15 it was 7%; in the experiment with PA-1, 47%; in the experiment on NCI-H522 it was 20%; in the experiment with T47D, 26%. Also, in the experiment with Rattus norvegicus, the Activity came to 14%.
With `O=C1C2C3c4ccccc4C(c4ccccc43)C2C(=O)N1CCN1CCNCC1` (configuration not stated), the Activity in the experiment on Rattus norvegicus is given as 31%.
On to `O=C1C2C3c4ccccc4C(c4ccccc43)C2C(=O)N1CC1CCNCC1` (configuration not stated), for which the inhibition of growth at 10 µM was 32% in the experiment with HepG2; 11% in the experiment with HCT-15; 26% in the experiment with PA-1; 25% in the experiment on NCI-H522; 17% in the experiment on T47D. Also, the Activity in the experiment on Rattus norvegicus is given as 35%.
`CC1(C)CC(N2C(=O)C3C4c5ccccc5C(c5ccccc54)C3C2=O)CC(C)(C)N1` (configuration not stated): the inhibition of growth at 10 µM in the experiment on HepG2 was determined as 40%; in the experiment with HCT-15 it was 20%; in the experiment on PA-1, 31%; in the experiment with NCI-H522, 15%; in the experiment on T47D, 10%. Moreover, the Activity with Rattus norvegicus is reported as 32%.
As to `O=C1C2C3c4ccccc4C(c4ccccc43)C2C(=O)N1C1CC1` (configuration not stated), the inhibition of growth at 10 µM was 53% in the experiment on HepG2; 19% in the experiment on HCT-15; 37% in the experiment with PA-1; 24% in the experiment with NCI-H522; 21% in the experiment with T47D. Besides, the Activity in the experiment on Rattus norvegicus was found to be 23%.
As for `O=C1C2C3c4ccccc4C(c4ccccc43)C2C(=O)N1Nc1ccccc1` (configuration not stated), the inhibition of growth at 10 µM with HepG2 came to 52%; in the experiment on HCT-15 it was 11%; in the experiment on PA-1 it was 46%; in the experiment on NCI-H522, 52%; in the experiment with T47D it was 13%. For the same compound, in the experiment with Rattus norvegicus, the Activity is reported as 11%.
As to `O=C1C2C3c4ccccc4C(c4ccccc43)C2C(=O)N1CCCN1CCN(CCCN2C(=O)C3C4c5ccccc5C(c5ccccc54)C3C2=O)CC1` (configuration not stated), the inhibition of growth at 10 µM was found to be 33% in the experiment with HepG2; 10% in the experiment on HCT-15; 16% in the experiment with PA-1; 17% in the experiment on NCI-H522; 33% in the experiment with T47D. For the same compound, in the experiment on Rattus norvegicus, the Activity was found to be 15%.
For `O=C1CCCN1CCN1C(=O)C2C3c4ccccc4C(c4ccccc43)C2C1=O` (configuration not stated), the inhibition of growth at 10 µM in the experiment on HepG2 stood at 41%; with HCT-15, 16%; in the experiment on PA-1, 33%; in the experiment on NCI-H522 it was 15%; in the experiment with T47D it was 26%. In addition, in the experiment with Rattus norvegicus, the Activity was determined as 17%.
For `O=C1C2C3c4ccccc4C(c4ccccc43)C2C(=O)N1Cc1ccncc1` (configuration not stated), the inhibition of growth at 10 µM with HepG2 was found to be 61%; in the experiment with HCT-15 it was 12%; in the experiment with PA-1 it was 21%; with NCI-H522 it was 27%; with T47D, 24%. Further, in the experiment on Rattus norvegicus, the Activity is 37%.
Take `O=C1C2C3c4ccccc4C(c4ccccc43)C2C(=O)N1CC1CCCO1` (configuration not stated): the inhibition of growth at 10 µM in the experiment with HepG2 worked out at 55%; with HCT-15, 22%; in the experiment with PA-1 it was 31%; in the experiment on NCI-H522, 30%; with T47D, 23%. Moreover, in the experiment with Rattus norvegicus, the Activity stood at 34%.
For `O=C1C2C3c4ccccc4C(c4ccccc43)C2C(=O)N1CCN1C(=O)C2C3c4ccccc4C(c4ccccc43)C2C1=O` (configuration not stated), the inhibition of growth at 10 µM came out at 29% with HepG2; 10% in the experiment on HCT-15; 9% in the experiment on PA-1; 11% in the experiment on NCI-H522; 5% with T47D. Besides, the Activity in the experiment with Rattus norvegicus worked out at 20%.
For `O=C1C2C3c4ccccc4C(c4ccccc43)C2C(=O)N1Nc1ccccn1` (configuration not stated), the inhibition of growth at 10 µM was determined as 37% in the experiment with HepG2; 4% in the experiment with HCT-15; 13% in the experiment on PA-1; 27% in the experiment with NCI-H522; 1% with T47D. Further, the Activity with Rattus norvegicus was found to be 38%.
